In US9861606B2, “Therapeutic for treating inflammatory lung disorders” (University College Cardiff Consultants Limited, priority 2012, dated 2018):
Values joined by “and” are separate entries in the source; they are usually repeats but may differ in a detail not shown here. Identical values can stand only once.

Tests used:
[1] = test system: mouse intralobular bronchi; assay: Wire myography: effect of calcilytic on ACh-precontracted mouse intralobular bronchi; settings: 300 nM or 3 micromolar; ACh 1 micromolar precontraction; WT mice
BalbC mice [2] = assay: Bronchial hyper-reactivity in ovalbumin-sensitised, ovalbumin-challenged mouse model of asthma; type: in vivo; settings: nebulised 3 μM; methacholine up to and including 30 mg/ml
Protocol: FIG. 13. The calcilytic, NPS89636, prevents ovalbumin-induced BHR in methacholine challenged mice. Mice were sensitised on days 0 and 5 by an i.p. injection of 100 microgram/mouse of ovalbumin (OVA) and 50 mg/mouse aluminium hydroxide in PBS. Fourteen days after the last injection, mice were challenged by inhalation of a 0.5% OVA aerosol in PBS twice on the same day, 4 h apart. Mice were treated with nebulised NPS89636 (3 micromolar) or vehicle (0.3% DMSO) one hour before and three hours after the last OVA exposure. Measurements of BHR following methacholine challenge were taken by plethysmography 24 hours before and after the last OVA inhalation challenge.
Penh was recorded by plethysmography during methacholine challenge, as above (Penh before treatment). 24 hours later, the mice were challenged with 0.5% nebulised OVA (in PBS w/v) in the absence or presence of nebulised NPS89636 (or 0.3% DMSO vehicle) by inhalation. The time-course of this challenge protocol consisted of: […]
Male BalbC mice (˜25 g) purchased from Harlan and allowed to acclimatise for 1 week prior to experiment. […] Thirteen days after the last injection, Penh was recorded by plethysmography during methacholine challenge, as described above (Penh before treatment). […]
Bronchoalveolar lavage was performed using three times 1 ml of PBS and the BALF was collected for the quantification of inflammatory cells. […]

BalbC mice [3] = assay: Inflammatory cell infiltration in BALF of OVA-sensitised mice; type: in vivo, mouse; settings: nebulised 3 micromolar
Protocol: FIG. 14. The calcilytic NPS89636 reduces inflammatory cell infiltration detected in the bronchioalveolar lavage fluid (BALF) from mice sensitized with OVA. 24 hours following the OVA sensitisation and nebulisation protocol described in detail in FIG. 13 in the presence of NS89636 (3 micromolar) or vehicle (0.3% DMSO), mice were killed and the BALF was collected by lavage. Cells from BALF were counted the same day using a haematocytometer. For differential cell count, BALF was concentrated by centrifugation 10 times, 100 microliters of the final solution was applied to a Cytospin 3 Shandon cell smearing system. The slides then were submerged into 1.5% Leisman stain in methanol for 6 min, then briefly washed in water twice, allowed to dry overnight, and the cells counted using 100× oil immersion objective. Data are presented as mean±S.E.M. Significant differences between vehicle and calcilytic are indicated, p<0.05, n=11.
Effect of the Calcilytic NPS 89636 on Inflammatory Cell Infiltration in the BALF of OVA-Sensitised Mice and LPS-Treated Guinea Pigs.
For the asthma model, OVA-sensitized mice were killed by a lethal overdose of sodium pentobarbitone (Euthatal), then using a cannula 1 ml of PBS was instilled into the lungs via an incision in the trachea. […]

[4] = Plasma ionised Ca2+ in guinea pigs after nebulised calcilytic treatment; type: in vivo, guinea pig
Description: Table 2. […] Accordingly, the treatment is not detrimental in mammals.

Plasma ionised Ca++, Treatment (24 hours), Average ([4]; 24 hours, average of 6): 1.53 mM/L
Compound: CCc1ccc(CC(C)(C)NCC(O)COc2cc(-c3ccc(C(=O)O)cc3)ccc2C#N)c(F)c1.Cl (stereo in doubt) [NPS89636, (S)-4′-cyano-3′-[3-[2-(4-ethyl-2-fluorophenyl)-1,1-dimethylethylamino]-2-hydroxy-propoxy]-biphenyl-4-carboxylic acid hydrochloride]
Relaxation of acetylcholine-preconstricted intralobular bronchi [1]: mild relaxation | Effect on methacholine-induced BHR in OVA-sensitised, OVA-challenged mice (BalbC mice [2]): completely abolished | Effect on OVA-evoked inflammatory cell infiltration into the lung (BALF) (BalbC mice [3]): reduced | Plasma ionised Ca++, Treatment (24 hours), individual animal ([4]; 24 hours after nebulised calcilytic, single animals, hydrochloride): 1.55 mM/L (2×) and 1.54 mM/L and 1.77 mM/L and 1.58 mM/L and 1.2 mM/L
